Values quoted from earlier work as cited in patent US20170100411A1, “CORTICOSTEROID FORMULATIONS FOR MAINTAINING CORTICOSTEROID SYNOVIAL FLUID CONCENTRATIONS” (priority 2015, published 2017).

Tests used:
HPA axis = conditions: BID administration of 20 mg
[1] = molecular target: T1, glucocorticosteroid (GC) receptor (Homo sapiens, UniProt P04150)
T1 sequence (P04150 1-777): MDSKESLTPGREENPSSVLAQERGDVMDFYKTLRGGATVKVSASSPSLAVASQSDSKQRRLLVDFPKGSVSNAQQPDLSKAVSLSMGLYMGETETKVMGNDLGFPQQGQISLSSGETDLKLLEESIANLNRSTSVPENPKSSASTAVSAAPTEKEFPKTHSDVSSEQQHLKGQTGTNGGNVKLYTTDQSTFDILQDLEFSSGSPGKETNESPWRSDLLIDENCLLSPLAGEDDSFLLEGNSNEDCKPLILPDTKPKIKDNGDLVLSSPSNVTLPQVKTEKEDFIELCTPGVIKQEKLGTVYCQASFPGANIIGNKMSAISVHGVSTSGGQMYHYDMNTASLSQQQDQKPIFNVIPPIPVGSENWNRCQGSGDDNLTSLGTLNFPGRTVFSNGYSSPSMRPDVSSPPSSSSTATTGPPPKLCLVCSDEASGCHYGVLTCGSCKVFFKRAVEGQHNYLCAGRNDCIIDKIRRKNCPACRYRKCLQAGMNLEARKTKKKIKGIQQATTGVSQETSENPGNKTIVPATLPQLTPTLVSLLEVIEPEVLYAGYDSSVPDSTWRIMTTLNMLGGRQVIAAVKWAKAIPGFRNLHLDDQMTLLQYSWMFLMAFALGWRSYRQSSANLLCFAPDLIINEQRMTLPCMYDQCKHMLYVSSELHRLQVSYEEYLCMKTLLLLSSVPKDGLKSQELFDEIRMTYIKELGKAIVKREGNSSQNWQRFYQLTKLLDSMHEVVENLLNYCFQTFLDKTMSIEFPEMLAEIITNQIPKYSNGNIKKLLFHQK

Row | suppression of the HPA axis (published CCS %) (HPA axis) | potency at the GC receptor relative to other corticosteroids such as TCA [1] | Molecule
1 | 80-90% | – | Methylprednisone
2 | – | approximately 20 fold | CCC(=O)O[C@]1(C(=O)SCF)[C@H](C)C[C@H]2[C@@H]3C[C@H](F)C4=CC(=O)C=C[C@]4(C)[C@@]3(F)[C@@H](O)C[C@@]21C [fluticasone propionate]
